From US10266544B2, “Aryl substituted aminomethyl spectinomycin analogs as antibacterial agents” (ST. JUDE CHILDREN'S RESEARCH HOSPITAL, INC., priority 2013, dated 2019)
Counter-ions that a name gives are not always drawn. Like-named read-outs stand apart in the source and are kept apart here.

Legend:
Assay type in all cases: cell-based
[1] = tested on: Stenotrophomonas maltophilia (ATCC 13637); test: MIC determination, microbroth dilution
[2] = tested on: Bacillus anthracis, Sterne 34F2; test: microbe, parasite or virus in culture; settings: STERNE34F2, read-out: MIC B.a.
[3] = tested on: E. coli K12 ΔtolC; test: microbe, parasite or virus in culture; settings: Escherichia coli, read-out: MIC E.c. Δtolc
[4] = tested on: Bacillus subtilis (ATCC 23857); test: MIC determination, microbroth dilution; settings: ATCC23857; Bacillus subtilis (ATCC 23857); read-out: MIC B.s.
[5] = tested on: Moraxella catarrhalis; test: MIC determination (Table 6)
[6] = tested on: Streptococcus pyogenes (ATCC 700294); test: MIC determination, microbroth dilution
[7] = tested on: live vaccine strain (LVS) of Francisella tularensis; test: microbe, parasite or virus in culture; settings: Francisella tularensis
[8] = tested on: Klebsiella pneumoniae (ATCC 33495); test: MIC determination, microbroth dilution; settings: ATCC33495
[9] = tested on: Bacillus anthracis; test: microbe, parasite or virus in culture; settings: read-out: MIC B.a.
[10] = tested on: Listeria monocytogenes; test: MIC determination (Table 6)
[11] = tested on: Burkholderia cepacia (ATCC 25416); test: MIC determination, microbroth dilution; settings: Burkholderia cepacia
[12] = tested on: Yersinia pestis; test: microbe, parasite or virus in culture; settings: read-out: MIC Y.p.
[13] = tested on: Neisseria gonorrhoeae (ATCC 49226); test: Disc diffusion assay; settings: ATCC49226, 4 μg per disc, read-out: Zone of inhibition N.g.
[14] = tested on: Haemophilus influenza (ATCC 49247); test: microbe, parasite or virus in culture; settings: ATCC49247; Haemophilus influenza; 4 μg per disc; range of at least two experiments; read-out: Zone of inhibition H.i.
[15] = tested on: M. tuberculosis clinical isolates; test: microbe, parasite or virus in culture; settings: Mycobacterium tuberculosis
[16] = tested on: Streptococcus pneumoniae (R6); test: MIC determination, microbroth dilution
[17] = tested on: Legionella pneumophila (ATCC 33153); test: microbe, parasite or virus in culture; settings: ATCC33153, 72 h, read-out: Zone of inhibition L.p.
[18] = tested on: Neisseria meningitides (ATCC 13077); test: Disc diffusion assay; settings: ATCC13077, 4 μg per disc, read-out: Zone of inhibition N.m.
[19] = tested on: Enterococcus faecalis (ATCC 33186); test: MIC determination, microbroth dilution; settings: ATCC33186; Enterococcus faecalis (ATCC 33186); read-out: MIC E.f.
[20] = tested on: acinetobacter baumannii (ATCC 19606); test: MIC determination, microbroth dilution; settings: ATCC19606
[21] = tested on: Staphylococcus aureus (ATCC 29213); test: MIC determination, microbroth dilution
[22] = tested on: Streptococcus pneumoniae clinical isolates representing several serotypes; test: MIC determination, Streptococcus pneumoniae panel of clinical isolates (Table 7); settings: Streptococcus pneumoniae
[23] = tested on: MRSA, Staphylococcus aureus (NRS70); test: MIC determination, microbroth dilution; settings: Staphylococcus aureus (NRS70); read-out: MIC MRSA
[24] = tested on: Proteus mirabilis (ATCC 25933); test: MIC determination, microbroth dilution; settings: ATCC25933
[25] = tested on: Escherichia coli (ATCC 700926); test: MIC determination, microbroth dilution; settings: ATCC700926; Escherichia coli (ATCC 700926); read-out: MIC E.c.
[26] = tested on: Pseudomonas aeruginosa (PA01); test: MIC determination, microbroth dilution
[27] = tested on: Proteus vulgaris (ATCC 33420); test: MIC determination, microbroth dilution; settings: ATCC33420
[28] = tested on: Neisseria gonorrhoeae (ATCC 49226); test: Agar MIC determination (Alamar Blue); settings: ATCC49226, agar MIC, read-out: MIC N.g.
[29] = ATCC13637, Stenotrophomonas maltophilia (ATCC 13637), read-out: MIC S.m.
[30] = ATCC700294, Streptococcus pyogenes (ATCC 700294), read-out: MIC S. py.
[31] = ATCC25416, read-out: MIC B.c., Burkholderia cepacia (ATCC 25416)
[32] = ATCC25416, read-out: MIC B.c., Burkholderia cepacia, Table 6
[33] = Streptococcus pneumoniae (R6), read-out: MIC S. pn.
[34] = Streptococcus pneumoniae, S. pneumoniae R6, Drug Susceptible, read-out: MIC R6
[35] = BAA1407, S. pneumoniae BAA-1407, Macrolide Resistant, read-out: MIC BAA-1407
[36] = S. pneumoniae Daw7, PenG Resistant, read-out: MIC Daw7
[37] = S. pneumoniae Daw8, PenG Resistant, read-out: MIC Daw8
[38] = S. pneumoniae Daw9, PenG Resistant, read-out: MIC Daw9
[39] = S. pneumoniae Daw62, PenG Resistant, read-out: MIC Daw62
[40] = S. pneumoniae Daw64, PenG Resistant, read-out: MIC Daw64
[41] = S. pneumoniae OVA6, Macrolide Resistant, read-out: MIC OVA6
[42] = S. pneumoniae T4X, Drug Susceptible, read-out: MIC T4X
[43] = ATCC29213, Staphylococcus aureus (ATCC 29213), read-out: MIC S.a.
[44] = Stenotrophomonas maltophilia, ATCC13637, read-out: MIC S.m.

SMILES: CN[C@@H]1[C@H](O)[C@H](NC)[C@H]2O[C@]3(O)[C@H](O[C@@H]2[C@H]1O)O[C@H](C)C[C@@]3(O)CNCCc1ccccc1 [compound 6, 3′-(R)-3′-(phenethylaminomethyl)dihydrospectinomycin Trihydrochloride]
- MIC [1, 29]: 1.6 µg/mL
- MIC [2]: 6.3 to 12.5 µg/mL
- MIC [3]: 3.1 to 6.3 µg/mL
- MIC [4]: 1.6 µg/mL
- MIC [5]: 0.4 µg/mL
- MIC [6, 30]: 3.1 µg/mL
- MIC ([7]; read-out: MIC F.t.): 1.6 µg/mL
- MIC [8]: 25 to 50 µg/mL
- MIC [9]: 6.3 to 12.5 µg/mL
- MIC [10]: 3.1 µg/mL
- MIC [11, 31]: > 200 µg/mL
- MIC [11, 32]: > 200 µg/mL
- MIC [12]: 200 µg/mL
- zone of inhibition at 4 µg/disc [13]: 16 mm
- zone of inhibition at 4 µg/disc [14]: 14 mm
- MIC ([15]; H37RV, read-out: MIC H37Rv): 1.6 µg/mL
- MIC ([15]; read-out: MIC TN022): 3.1 µg/mL
- MIC ([15]; read-out: MIC TN026): 3.1 µg/mL
- MIC [16, 33]: 3.1 µg/mL
- MIC [16, 34]: 6.3 µg/mL
- zone of inhibition at 4 µg/disc [17]: 36 mm
- zone of inhibition at 4 µg/disc [18]: 16 mm
- MIC [19]: 12.5 µg/mL
- MIC [20]: > 200 µg/mL
- MIC ([21]; Staphylococcus aureus, ATCC29213, read-out: MIC S.a.): 6.3 to 12.5 µg/mL
- MIC [22, 35]: 12.5 µg/mL
- MIC ([22]; S. pneumoniae A66.1x, Drug Susceptible, read-out: MIC A66.1x): 3.1 µg/mL
- MIC ([22]; S. pneumoniae BHN97x, Drug Susceptible, read-out: MIC BHN97x): 3.1 µg/mL
- MIC ([22]; S. pneumoniae D39X, Drug Susceptible, read-out: MIC D39X): 3.1 µg/mL
- MIC [22, 36]: 6.3 µg/mL
- MIC [22, 37]: 6.3 µg/mL
- MIC [22, 38]: 6.3 µg/mL
- MIC [22, 39]: 6.3 µg/mL
- MIC [22, 40]: 6.3 µg/mL
- MIC [22, 41]: 3.1 µg/mL
- MIC [22, 42]: 3.1 µg/mL
- MIC [23]: 12.5 to 25 µg/mL
- MIC [24]: > 200 µg/mL
- MIC [25]: 6.3 to 12.5 µg/mL
- MIC [26]: ≥ 200 µg/mL
- MIC [27]: 50 to 100 µg/mL

SMILES: CN[C@@H]1[C@H](O)[C@H](NC)[C@H]2O[C@]3(O)[C@H](O[C@@H]2[C@H]1O)O[C@H](C)C[C@@]3(O)CNCc1ccccc1OC(F)(F)F [compound 10, Trihydrochloride]
- MIC [1, 29]: 50 µg/mL
- MIC [2]: 200 µg/mL
- MIC [3]: 25 to 50 µg/mL
- MIC [4]: 50 µg/mL
- MIC [5]: 50 to 100 µg/mL
- MIC [6, 30]: 25 to 50 µg/mL
- MIC [7]: 25 µg/mL
- MIC ([7]; read-out: MIC F.t.): 25 µg/mL
- MIC [8]: 100 to 200 µg/mL
- MIC [9]: 200 µg/mL
- MIC [10]: 100 µg/mL
- MIC [11, 31]: > 200 µg/mL
- MIC [11, 32]: > 200 µg/mL
- MIC [12]: 200 µg/mL
- zone of inhibition at 4 µg/disc [13]: 8 mm
- zone of inhibition at 4 µg/disc [14]: 0 mm
- MIC ([15]; H37RV, read-out: MIC H37Rv): 200 µg/mL
- MIC [16, 33]: 25 µg/mL
- MIC [16, 34]: 12.5 µg/mL
- zone of inhibition at 4 µg/disc [18]: 0 mm
- MIC [28]: 200 µg/mL
- MIC [19]: 200 µg/mL
- MIC [20]: 100 to 200 µg/mL
- MIC [21, 43]: 200 µg/mL
- MIC [22, 35]: 25 µg/mL
- MIC [22, 36]: 12.5 µg/mL
- MIC [22, 37]: 12.5 µg/mL
- MIC [22, 38]: 12.5 µg/mL
- MIC [22, 39]: 12.5 µg/mL
- MIC [22, 40]: 25 µg/mL
- MIC [22, 41]: 6.3 µg/mL
- MIC [22, 42]: 3.1 µg/mL
- MIC [23]: 200 µg/mL
- MIC [24]: > 200 µg/mL
- MIC [25]: 200 µg/mL
- MIC [26]: 200 µg/mL
- MIC [27]: > 200 µg/mL

SMILES: CN[C@@H]1[C@H](O)[C@H](NC)[C@H]2O[C@]3(O)[C@H](O[C@@H]2[C@H]1O)O[C@H](C)C[C@@]3(O)CNCc1ccc(F)c(F)c1 [compound 12, 3′-(R)-3′-[(3,4-difluoro)benzylaminomethyl)]dihydrospectinomycin Trihydrochloride]
- MIC [1, 44]: 12.5 to 25 µg/mL
- MIC [2]: 50 µg/mL
- MIC [3]: 12.5 to 25 µg/mL
- MIC [4]: 25 to 50 µg/mL
- MIC [5]: 6.3 to 12.5 µg/mL
- MIC [6, 30]: 3.1 µg/mL
- MIC ([7]; read-out: MIC F.t.): 3.1 to 6.3 µg/mL
- MIC [8]: > 200 µg/mL
- MIC [9]: 50 µg/mL
- MIC [10]: 6.3 to 12.5 µg/mL
- MIC [11, 31]: ≥ 200 µg/mL
- MIC [11, 32]: ≥ 200 µg/mL
- MIC [12]: 200 µg/mL
- zone of inhibition at 4 µg/disc [13]: 15 to 17 mm
- zone of inhibition at 4 µg/disc [14]: 16 to 17 mm
- MIC ([15]; H37RV, read-out: MIC H37Rv): 50 µg/mL
- MIC [16, 33]: 6.3 µg/mL
- zone of inhibition at 4 µg/disc [18]: 17 mm
- MIC [28]: 25 to 50 µg/mL
- MIC [19]: 50 µg/mL
- MIC [20]: ≥ 200 µg/mL
- MIC [21, 43]: 100 to 200 µg/mL
- MIC [23]: 200 µg/mL
- MIC [24]: > 200 µg/mL
- MIC [25]: 25 to 50 µg/mL
- MIC [26]: ≥ 200 µg/mL
- MIC [27]: > 200 µg/mL

SMILES: CN[C@@H]1[C@H](O)[C@H](NC)[C@H]2O[C@]3(O)[C@H](O[C@@H]2[C@H]1O)O[C@H](C)C[C@@]3(O)CNCc1ccccn1 [compound 16, 3′-(R)-3′-(2-pyridinylmethylaminomethyl)dihydrospectinomycin Tetrahydrobromide]
- MIC [1, 44]: 12.5 to 25 µg/mL
- MIC [2]: 50 µg/mL
- MIC [3]: 50 µg/mL
- MIC [4]: 50 µg/mL
- MIC [5]: 12.5 µg/mL
- MIC ([6]; Streptococcus pyogenes, ATCC700294, read-out: MIC S. py.): 12.5 to 25 µg/mL
- MIC [8]: 200 µg/mL
- MIC [9]: 50 µg/mL
- MIC [10]: 25 µg/mL
- MIC [11, 31]: > 200 µg/mL
- MIC [11, 32]: > 200 µg/mL
- MIC [12]: 100 µg/mL
- zone of inhibition at 4 µg/disc [13]: 6 mm
- zone of inhibition at 4 µg/disc [14]: 7 mm
- MIC ([15]; H37RV, read-out: MIC H37Rv): 12.5 µg/mL
- MIC ([16]; Streptococcus pneumoniae, read-out: MIC S. pn.): 12.5 µg/mL
- zone of inhibition at 4 µg/disc [17]: 34 mm
- zone of inhibition at 4 µg/disc [18]: 13 mm
- MIC [28]: ≥ 200 µg/mL
- MIC [19]: 100 µg/mL
- MIC [20]: > 200 µg/mL
- MIC [21, 43]: 100 to 200 µg/mL
- MIC [23]: > 200 µg/mL
- MIC [24]: > 200 µg/mL
- MIC [25]: 100 to 200 µg/mL
- MIC [26]: > 200 µg/mL
- MIC [27]: > 200 µg/mL
